One block for each compound: values may come before it.
Target: T1, GnT-V (β1,6-N-acetylglucosaminyl transferase) (Homo sapiens, UniProt Q09328)
T1 construct: 73/60 kDa
T1 sequence (Q09328 31-741): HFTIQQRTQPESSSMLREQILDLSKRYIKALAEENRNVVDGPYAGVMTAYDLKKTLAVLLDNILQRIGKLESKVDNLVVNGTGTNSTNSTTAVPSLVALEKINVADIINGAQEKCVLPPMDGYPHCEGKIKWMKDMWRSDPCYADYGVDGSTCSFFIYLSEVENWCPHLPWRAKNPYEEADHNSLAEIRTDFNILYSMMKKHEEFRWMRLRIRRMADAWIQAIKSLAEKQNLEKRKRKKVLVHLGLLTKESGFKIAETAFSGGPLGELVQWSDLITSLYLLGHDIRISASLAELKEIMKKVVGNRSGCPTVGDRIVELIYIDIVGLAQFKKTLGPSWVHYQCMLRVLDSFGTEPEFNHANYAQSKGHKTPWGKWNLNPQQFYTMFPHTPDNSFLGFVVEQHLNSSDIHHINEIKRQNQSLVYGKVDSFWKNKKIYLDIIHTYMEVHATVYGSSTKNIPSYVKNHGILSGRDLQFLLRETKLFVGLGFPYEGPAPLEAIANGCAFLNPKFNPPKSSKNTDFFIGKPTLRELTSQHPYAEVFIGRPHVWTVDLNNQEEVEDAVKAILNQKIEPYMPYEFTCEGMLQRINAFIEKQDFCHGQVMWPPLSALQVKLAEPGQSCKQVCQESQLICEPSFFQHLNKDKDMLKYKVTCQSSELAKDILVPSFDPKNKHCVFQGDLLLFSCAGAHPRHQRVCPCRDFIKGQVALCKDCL
Test: GnT-V enzyme activity assay with fluorescence-labeled sugar acceptors, product separated by HPLC
Assay type: biochemical
Settings: for Relative reaction rate: acceptor 70 μM, purified GnT-V 0.1 mg protein/ml, GnGn-bi-PA = 100; for reactivity relative to GnGn-bi-PA acceptor taken as 100%: substrate specificity
Source text: An enzyme activity can be easily assayed by labeling an acceptor with a radioisotope or with fluorescent substance, adding the enzyme and separating the reaction product by high performance liquid chromatography (HPLC). More specifically, the method reported by Tanigichi et al. (Taniguchi, N., Nishikawa, A., Fujii, S., and Gu. J., Methods Enzymol. 179, 397-408 (1989); Nishikawa, H., Gu, J., Fujii, S., and Tanigichi, N., Biochem. Biophys. Acta, 1035, 313-318 (1990)) may be followed.
Namely, the enzyme activity of GnT-V can be assayed using GnGn-2-aminopyridine (GnGn-bi-PA) as an acceptor, and UDP-GluNAc (Sigma) as a donor. Activity is shown by an amount of transferred N-acetylglucosamine/hour/mg protein. Note, an amount of protein can be measured according to a reported method (Redinbaugh, M. G., and Turley, R. B., Anal. Biochem. 153, 267-271 (1986)) using a BCA kit (Pierce Chemical Company, Rockford, Ill.) and using bovine serum albumin as a standard.
Substrate specificity was determined using the following compound as sugar acceptors according to the above-mentioned enzyme activity measuring method. [drawing 1]
GnGnF--, GnGF--, GGnF--, Gn(Gn)GnF--, Gn(Gn)Gn--, GG--, GnGn--, MM-- and GnM-- were isolated from the bovine IgG treated with anhydrous hydrazine and then labeled with a fluorescence label according to Hase et al. method (Hase, S., Ibuki, T., and Ikehara, T., J. Biochem. 95, 197-203 (1984). The purified GnT-V was diluted with PBS buffer to a final concentration of 0.1 mg protein/ml, and then reacted with each fluorescence-labeled sugar acceptor. A result is shown in Table 2.

Compound: O=C(O)CN(CCN(CC(=O)O)CC(=O)O)CC(=O)O [EDTA]
- inhibition of GnT-V activity (in the presence of 20 mM EDTA): not inhibited

- requirement for expression of GnT-V activity: not necessary
Compound: [Mn+2] [Mn^2+]

- Relative reaction rate: 0
Compound: CC(=O)N[C@H]1[C@H](O[C@H]2[C@@H](O)[C@@H](CO)O[C@@H](O[C@@H]([C@H](O)[C@@H](O)CNc3ccccn3)[C@H](O)CO)[C@@H]2O)O[C@H](CO)[C@@H](O[C@@H]2O[C@H](CO)[C@H](O)[C@H](O)[C@H]2O)[C@@H]1O [Lacto-N-neotetraose-PA, Galβ1-4GlcNAcβ1-3Galβ1-4Glc-2-aminopyridine]

- Relative reaction rate: 0.2
Compound: CC(=O)N[C@H]1[C@H](O[C@@H]([C@H](O)[C@H](CNc2ccccn2)NC(C)=O)[C@H](O)CO[C@@H]2O[C@@H](C)[C@@H](O)[C@@H](O)[C@@H]2O)O[C@H](CO)[C@@H](O[C@@H]2O[C@H](CO[C@H]3O[C@H](CO)[C@@H](O)[C@H](O)[C@@H]3O[C@@H]3O[C@H](CO)[C@@H](O[C@@H]4O[C@H](CO)[C@H](O)[C@H](O)[C@H]4O)[C@H](O)[C@H]3NC(C)=O)[C@@H](O)[C@H](O[C@H]3O[C@H](CO)[C@@H](O)[C@H](O)[C@@H]3O[C@@H]3O[C@H](CO)[C@@H](O)[C@H](O)[C@H]3NC(C)=O)[C@@H]2O)[C@@H]1O [GGnF-bi-PA, GlcNAcβ1-2Manα1-3(Galβ1-4GlcNAc2Manα1-6)Manβ1-4GlcNAcβ1-4GlcNAc(Fucα1-6)-2-aminopyridine]

- Relative reaction rate: 0
Compound: CC(=O)N[C@H]1[C@H](O[C@@H]([C@H](O)[C@H](CNc2ccccn2)NC(C)=O)[C@H](O)CO)O[C@H](CO)[C@@H](O[C@@H]2O[C@H](CO[C@H]3O[C@H](CO)[C@@H](O)[C@H](O)[C@@H]3O)[C@@H](O)[C@H](O[C@H]3O[C@H](CO)[C@@H](O)[C@H](O)[C@@H]3O)[C@@H]2O)[C@@H]1O [MM-PA, Manα1-3Manα1-6)Manβ1-4GlcNAcβ1-4GlcNAc-2-aminopyridine]

- reaction of the enzyme with acceptor (qualitative): reacts
- Relative reaction rate: 66
- reactivity relative to GnGn-bi-PA acceptor taken as 100%: about 66%
Compound: CC(=O)N[C@H]1[C@H](O[C@@H]([C@H](O)[C@H](CNc2ccccn2)NC(C)=O)[C@H](O)CO)O[C@H](CO)[C@@H](O[C@@H]2O[C@H](CO[C@H]3O[C@H](CO)[C@@H](O)[C@H](O)[C@@H]3O[C@@H]3O[C@H](CO)[C@@H](O)[C@H](O)[C@H]3NC(C)=O)[C@@H](O)[C@H](O[C@H]3O[C@H](CO)[C@@H](O)[C@H](O)[C@@H]3O)[C@@H]2O)[C@@H]1O [GnM-PA, Manα1-3(GlcNAcβ1-2Manα1-6)Manβ1-4GlcNAcβ1-4GlcNAc-2-aminopyridine]

- reaction of the enzyme with acceptor (qualitative): reacts
- Relative reaction rate: 78
- reactivity relative to GnGn-bi-PA acceptor taken as 100%: about 78%
Compound: CC(=O)N[C@H]1[C@H](O[C@@H]([C@H](O)[C@H](CNc2ccccn2)NC(C)=O)[C@H](O)CO[C@@H]2O[C@@H](C)[C@@H](O)[C@@H](O)[C@@H]2O)O[C@H](CO)[C@@H](O[C@@H]2O[C@H](CO[C@H]3O[C@H](CO)[C@@H](O)[C@H](O)[C@@H]3O[C@@H]3O[C@H](CO)[C@@H](O)[C@H](O)[C@H]3NC(C)=O)[C@@H](O)[C@H](O[C@H]3O[C@H](CO)[C@@H](O)[C@H](O)[C@@H]3O[C@@H]3O[C@H](CO)[C@@H](O)[C@H](O)[C@H]3NC(C)=O)[C@@H]2O)[C@@H]1O [GnGnF-bi-PA, GlcNAcβ1-2Manα1-3-(GlcNAcβ1-2Manα1-6)Manβ1-4GlcNAcβ1-4GlcNAc(Fucα1-6)-2-aminopyridine]

— patent US5834284A, “N-acetylglucosaminyl transferase gene coding therefor and process for production thereof” (Suntory Limited, priority 1992, dated 1998)
